# Reference: the supplement of paper PMC10307832
# Columns and labels:
# Assay in all cases: relative viability (nuclei count vs DMSO), 5 days (fraction); higher = more cells survive
# [1] = compound: CN(C)C/C=C/C(=O)Nc1cc2c(Nc3ccc(F)c(Cl)c3)ncnc2cc1O[C@H]1CCOC1 [Afatinib]
# In short: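 Viability is treated-well nuclei as a fraction of vehicle-well nuclei, reported as the median across plates. Before counting, lung cancer cell lines were kept overnight at 37 °C in 1536-well plates, pinned with five √10-spaced library-drug doses on vehicle-anchored plates, and left 5 days without medium change, then fixed, permeabilised and Hoechst-stained in one step, imaged at 4× and counted by MetaXpress. A plate passed only if control CV was below 25% and at least one doubling occurred.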
# [2] = compound: CN(C)C/C=C/C(=O)Nc1cc2c(Nc3ccc(F)c(Cl)c3)ncnc2cc1O[C@H]1CCOC1 [Afatinib] + CC1(C)CCC(c2ccc(Cl)cc2)=C(CN2CCN(c3ccc(C(=O)NS(=O)(=O)c4ccc(N[C@H](CCN5CCOCC5)CSc5ccccc5)c(S(=O)(=O)C(F)(F)F)c4)cc3)CC2)C1 [Navitoclax] (partner 0.5 µM)
# In short: (§1)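 Cells from lung cancer lines were seeded into 1536-well plates and, one day later, dosed by pin tool. Treatments were either a single drug or a fixed dose of an anchor drug with five library-drug doses (not always all listed) in √10 steps. After 5 days, nuclei were stained in a one-step fixation (final 0.05% Triton X-100, 1% formaldehyde, 1 ug/ml Hoechst) and counted on 4× images, and relative viability is the treated-to-vehicle nuclei ratio, as the median of duplicate plates.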
# [3] = compound: CN(C)C/C=C/C(=O)Nc1cc2c(Nc3ccc(F)c(Cl)c3)ncnc2cc1O[C@H]1CCOC1 [Afatinib] + COc1cc2c(Oc3ccc(NC(=O)C4(C(=O)Nc5ccc(F)cc5)CC4)cc3F)ccnc2cc1OCCCN1CCOCC1 [Foretinib] (partner 0.25 µM)
# In short: as §1
# [4] = compound: CN(C)C/C=C/C(=O)Nc1cc2c(Nc3ccc(F)c(Cl)c3)ncnc2cc1O[C@H]1CCOC1 [Afatinib] + CS(=O)(=O)CCNCc1ccc(-c2ccc3ncnc(Nc4ccc(OCc5cccc(F)c5)c(Cl)c4)c3c2)o1 [Lapatinib] (partner 2 µM)
# In short: as §1
# [5] = compound: CN(C)C/C=C/C(=O)Nc1cc2c(Nc3ccc(F)c(Cl)c3)ncnc2cc1O[C@H]1CCOC1 [Afatinib] + CS(=O)(=O)N1CCN(Cc2cc3nc(-c4cccc5[nH]ncc45)nc(N4CCOCC4)c3s2)CC1 [Pictilisib] (partner 1 µM)
# In short: as §1
# [6] = compound: CN(C)C/C=C/C(=O)Nc1cc2c(Nc3ccc(F)c(Cl)c3)ncnc2cc1O[C@H]1CCOC1 [Afatinib] + C[C@@H](Oc1cc(-c2cnn(C3CCNCC3)c2)cnc1N)c1c(Cl)ccc(F)c1Cl [Crizotinib] (partner 1 µM)
# In short: as §1
# [7] = compound: CN(C)C/C=C/C(=O)Nc1cc2c(Nc3ccc(F)c(Cl)c3)ncnc2cc1O[C@H]1CCOC1 [Afatinib] + C[C@]1(O)C[C@@H](c2nc(-c3ccc4ccc(-c5ccccc5)nc4c3)c3c(N)nccn32)C1 [Linsitinib] (partner 1 µM)
# In short: as §1
# [8] = compound: CN(C)C/C=C/C(=O)Nc1cc2c(Nc3ccc(F)c(Cl)c3)ncnc2cc1O[C@H]1CCOC1 [Afatinib] + Cc1nc(NC(=O)N2CCC[C@H]2C(N)=O)sc1-c1ccnc(C(C)(C)C(F)(F)F)c1 [Alpelisib] (partner 2 µM)
# In short: as §1
# [9] = compound: CN(C)C/C=C/C(=O)Nc1cc2c(Nc3ccc(F)c(Cl)c3)ncnc2cc1O[C@H]1CCOC1 [Afatinib] + N=C(N)NC(=N)NCCc1ccccc1 [Phenformin] (partner 250 µM)
# In short: as §1
# [10] = compound: CN(C)C/C=C/C(=O)Nc1cc2c(Nc3ccc(F)c(Cl)c3)ncnc2cc1O[C@H]1CCOC1 [Afatinib] + Nc1ncn([C@H]2C[C@H](O)[C@@H](CO)O2)c(=O)n1 [Decitabine] (partner 2 µM)
# In short: as §1
# [11] = compound: CN(C)C/C=C/C(=O)Nc1cc2c(Nc3ccc(F)c(Cl)c3)ncnc2cc1O[C@H]1CCOC1 [Afatinib] + O=C(c1cc(Cc2n[nH]c(=O)c3ccccc23)ccc1F)N1CCN(C(=O)C2CC2)CC1 [Olaparib] (partner 8 µM)
# In short: as §1
cell line,measurement,setting,value
A549,relative viability,[1]; 0.005 µM,0.969
same,relative viability,[1]; 0.01581 µM,1
same,relative viability,[1]; 0.05 µM,0.938
same,relative viability,[1]; 0.1581 µM,0.867
same,relative viability,[1]; 0.5 µM,0.858
same,relative viability,[2]; first compound 0.005 µM,1.3
same,relative viability,[2]; first compound 0.01581 µM,1.11
same,relative viability,[2]; first compound 0.05 µM,1.2
same,relative viability,[2]; first compound 0.1581 µM,1.09
same,relative viability,[2]; first compound 0.5 µM,1.16
same,relative viability,[3]; first compound 0.005 µM,0.826
same,relative viability,[3]; first compound 0.01581 µM,0.835
same,relative viability,[3]; first compound 0.05 µM,0.781
same,relative viability,[3]; first compound 0.1581 µM,0.806
same,relative viability,[3]; first compound 0.5 µM,0.861
same,relative viability,[4]; first compound 0.005 µM,0.974
same,relative viability,[4]; first compound 0.01581 µM,0.979
same,relative viability,[4]; first compound 0.05 µM,1.01
same,relative viability,[4]; first compound 0.1581 µM,0.893
same,relative viability,[4]; first compound 0.5 µM,0.997
same,relative viability,[5]; first compound 0.005 µM,0.499
same,relative viability,[5]; first compound 0.01581 µM,0.416
same,relative viability,[5]; first compound 0.05 µM,0.478
same,relative viability,[5]; first compound 0.1581 µM,0.389
same,relative viability,[5]; first compound 0.5 µM,0.442
same,relative viability,[6]; first compound 0.005 µM,0.995
same,relative viability,[6]; first compound 0.01581 µM,0.655
same,relative viability,[6]; first compound 0.05 µM,0.712
same,relative viability,[6]; first compound 0.1581 µM,0.695
same,relative viability,[6]; first compound 0.5 µM,0.796
same,relative viability,[7]; first compound 0.005 µM,0.608
same,relative viability,[7]; first compound 0.01581 µM,0.435
same,relative viability,[7]; first compound 0.05 µM,0.533
same,relative viability,[7]; first compound 0.1581 µM,0.433
same,relative viability,[7]; first compound 0.5 µM,0.467
same,relative viability,[8]; first compound 0.005 µM,0.629
same,relative viability,[8]; first compound 0.01581 µM,0.632
same,relative viability,[8]; first compound 0.05 µM,0.631
same,relative viability,[8]; first compound 0.1581 µM,0.61
same,relative viability,[8]; first compound 0.5 µM,0.642
same,relative viability,[9]; first compound 0.005 µM,0.152
same,relative viability,[9]; first compound 0.01581 µM,0.154
same,relative viability,[9]; first compound 0.05 µM,0.192
same,relative viability,[9]; first compound 0.1581 µM,0.162
same,relative viability,[9]; first compound 0.5 µM,0.15
same,relative viability,[10]; first compound 0.005 µM,0.28
same,relative viability,[10]; first compound 0.01581 µM,0.272
same,relative viability,[10]; first compound 0.05 µM,0.278
same,relative viability,[10]; first compound 0.1581 µM,0.232
same,relative viability,[10]; first compound 0.5 µM,0.299
same,relative viability,[11]; first compound 0.005 µM,0.321
same,relative viability,[11]; first compound 0.01581 µM,0.451
same,relative viability,[11]; first compound 0.05 µM,0.359
same,relative viability,[11]; first compound 0.1581 µM,0.304
same,relative viability,[11]; first compound 0.5 µM,0.375
